Test results as given in US10709709B2, “Substituted carbonucleoside derivatives useful as anticancer agents” (Pfizer Inc., priority 2016, dated 2020).

Experiments:
[1] = target: PRMT5/MEP50 protein complex (Homo sapiens (Human), UniProt O14744); experiment: PRMT5 biochemical assay (3H-SAM methylation of H4(1-21) peptide, filter plate scintillation); details: 10 nM PRMT5/MEP50 complex, 200 nM H4(1-21) peptide, 1 uM SAM, 25 minute incubation at room temperature
Method in brief: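 Human PRMT5/MEP50 complex (10 nM) methylating H4(1-21) peptide (200 nM) with 3H/unlabelled SAM (1 uM final) in pH 8.5 Tris buffer, 25 min at room temperature. Stopped with TCA, 3H-peptide captured on filter plates and scintillation-counted. IC50 from 4-parameter fit.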

[2] = system: A549 lung adenocarcinoma cells; experiment: A549 proliferation assay (Cell Titer Glo); format: cell-based; details: Homo sapiens, A549, 168 h, 7 days with compound, cell viability by Cell Titer Glo (ATP)
Method in brief: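 A549 cells plated overnight, then treated with nine-point 3.3-fold dilutions (final top 10 μM, 0.2% DMSO) for 7 days at 37 °C, with media and compound refreshed on day 4. Viability measured as ATP by Cell Titer Glo luminescence; IC50 from 4-parameter fit normalized to DMSO control.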

Chain of PRMT5/MEP50 protein complex (O14744 other isoform, or with tags, fused parts or gaps): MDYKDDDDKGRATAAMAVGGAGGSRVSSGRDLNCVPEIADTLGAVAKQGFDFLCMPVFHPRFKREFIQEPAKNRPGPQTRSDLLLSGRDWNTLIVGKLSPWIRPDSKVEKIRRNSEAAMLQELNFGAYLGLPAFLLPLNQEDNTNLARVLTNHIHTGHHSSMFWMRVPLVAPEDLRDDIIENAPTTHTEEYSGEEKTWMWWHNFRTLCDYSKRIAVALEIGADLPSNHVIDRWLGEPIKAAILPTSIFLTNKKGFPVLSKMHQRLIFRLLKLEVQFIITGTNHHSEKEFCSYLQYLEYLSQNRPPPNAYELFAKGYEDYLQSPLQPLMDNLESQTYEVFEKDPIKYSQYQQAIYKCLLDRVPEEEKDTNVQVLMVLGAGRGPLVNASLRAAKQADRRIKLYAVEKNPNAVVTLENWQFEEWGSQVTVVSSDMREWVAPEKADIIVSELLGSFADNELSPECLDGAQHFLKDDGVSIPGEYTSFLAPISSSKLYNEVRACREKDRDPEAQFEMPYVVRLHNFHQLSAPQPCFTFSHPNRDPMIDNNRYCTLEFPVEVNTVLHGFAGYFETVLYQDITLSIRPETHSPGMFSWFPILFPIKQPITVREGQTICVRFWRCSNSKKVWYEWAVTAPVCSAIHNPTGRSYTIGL
Chain of PRMT5/MEP50 protein complex (Q9BQA1 whole entry partner): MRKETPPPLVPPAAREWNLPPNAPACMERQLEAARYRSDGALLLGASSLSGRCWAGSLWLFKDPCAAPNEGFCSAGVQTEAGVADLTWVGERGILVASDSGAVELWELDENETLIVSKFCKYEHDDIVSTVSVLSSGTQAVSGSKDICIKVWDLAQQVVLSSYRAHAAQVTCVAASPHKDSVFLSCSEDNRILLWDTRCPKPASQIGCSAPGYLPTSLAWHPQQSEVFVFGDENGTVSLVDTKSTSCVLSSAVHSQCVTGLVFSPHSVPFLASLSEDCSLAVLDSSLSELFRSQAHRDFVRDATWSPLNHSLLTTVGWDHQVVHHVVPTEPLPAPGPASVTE

SMILES	IC50 [1]	IC50 [2]
Cc1cc2c(c(O[C@H]3C[C@@H](n4cc(F)c5c(C)ncnc54)[C@H](O)[C@@H]3O)c1)CNCC2 [Example 124, (1S,2S,3R,5S)-3-(5-fluoro-4-methyl-7H-pyrrolo[2,3-d]pyrimidin-7-yl)-5-((6-methyl-1,2,3,4-tetrahydroisoquinolin-8-yl)oxy)cyclopentane-1,2-diol]	2 nM	3830 nM
Cc1ncnc2c1ccn2[C@@H]1C[C@H](Oc2cc(F)c(F)cc2CN)[C@@H](O)[C@H]1O [Example 148, (1S,2S,3S,5R)-3-(2-(aminomethyl)-4,5-difluorophenoxy)-5-(4-methyl-7H-pyrrolo[2,3-d]pyrimidin-7-yl)cyclopentane-1,2-diol]	2 nM	4880 nM
Cc1ncnc2c1ccn2[C@@H]1C[C@H](Oc2ccc(F)c3c2C(C)NCC3)[C@@H](O)[C@H]1O (single isomer, unassigned) [Example 213]	1 nM	1200 nM
